Results published in patent US20210170043A1, “DC-SIGN ANTIBODY CONJUGATES COMPRISING STING AGONISTS” (NOVARTIS AG, priority 2018, published 2021).

How the values were obtained:
THP1-Dual cells = experiment: THP1-Dual assay (Lucia reporter); assay type: cell-based; conditions: Homo sapiens, 384 well, 16-24 hours, normalized to 2'3'-cGAMP at 50 uM
Description: THP1-Dual cells were purchased from Invivogen. THP1-Dual cells were plated in 384 well plates in 20 uL of tissue culture media and incubated overnight. Compounds were added the next day and incubated 16-24 hours. Lucia reporter signal was read out by adding Quantiluc reagent (Invivogen) followed by reading on an Envision plate reader. The fold change over background was calculated and normalized to the fold-change induced by 2′3′-cGAMP at 50 uM. Plates were run in triplicate.

THP1-Dual/STING-KO cells = experiment: THP1-Dual/STING-KO assay; assay type: cell-based; conditions: Homo sapiens, pooled STING-KO clones
Description: The fold change over background was calculated and normalized to the fold-change induced by 2′3′-cGAMP at 50 uM. Plates were run in triplicate.

[1] = system: transgenic mice expressing human DC-SIGN gene (Tg+); experiment: Plasma cytokine production in transgenic mice expressing human DC-SIGN (ELISA / MesoScaleDiscovery); assay type: in vivo, mouse
Description: FIGS. 5A-5E show exemplary data on DC-SIGN immunoconjugates inducing cytokine production in Tg+ mice. […] Plasma levels were analyzed by ELISA (IP-10 and IFNβ) or MesoScaleDiscovery Multiplex analysis (all other analytes). **** denotes p value of <0.0001 using an ANOVA with Tukey's test compared to Tg-2B2 hlgG1 DAPA C1 group.
(§1) Mice were bled 6 hours after dosing to collect plasma for analysis of circulating cytokine levels.

human STING wild type = biological target: T1, human STING wild type (Homo sapiens, UniProt Q86WV6, H232R); experiment: hSTING wt assay (5xISRE-mIFNb-GL4 luciferase reporter in transfected HEK-293T cells); assay type: cell-based; conditions: read after 9-14 hours, normalized to 2'3'-cGAMP at 50 uM
T1 construct: expressed in transfected cells; host or cells: HEK-293T
T1 sequence (Q86WV6 whole entry H232R): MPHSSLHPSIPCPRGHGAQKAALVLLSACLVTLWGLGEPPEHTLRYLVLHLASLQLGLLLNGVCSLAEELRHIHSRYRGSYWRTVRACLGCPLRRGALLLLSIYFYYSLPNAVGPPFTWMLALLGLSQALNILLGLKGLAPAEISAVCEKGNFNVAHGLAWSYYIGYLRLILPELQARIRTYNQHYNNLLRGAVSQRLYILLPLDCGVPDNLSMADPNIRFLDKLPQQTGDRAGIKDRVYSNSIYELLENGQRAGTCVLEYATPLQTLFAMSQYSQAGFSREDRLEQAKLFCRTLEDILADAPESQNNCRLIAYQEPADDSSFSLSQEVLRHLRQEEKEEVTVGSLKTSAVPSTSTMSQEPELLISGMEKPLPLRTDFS
Description: Cells were incubated overnight and treated with compounds. After 9-14 hours, plates were read by adding BrightGlo reagent (Promega) and reading on an Envision plate reader. The fold change over background was calculated and normalized to the fold-change induced by 2′3′-cGAMP at 50 uM. Plates were run in triplicate.

[2] = system: transgenic mice expressing human DC-SIGN gene (Tg+); experiment: Plasma cytokine and chemokine levels in human DC-SIGN transgenic mice; assay type: in vivo, mouse; conditions: 100 μg free compound i.v., 6 hours post dose, vs untreated and 10 μg
Description: Blood was collected at 6 hours post dose to analyze plasma cytokine and chemokine levels and spleens were analyzed at 24 hours post dose to look at dendritic cell activation.
as §1
Plasma was collected at indicated timepoints and analyzed with a Mouse IP-10 Platinum ELISA kit (eBioscience Affymetrix). Plasma was diluted 1:100 and the protocol was followed according to the manufacturer's recommendations. Data was collected using an Enspire spectro-photometer using […] as the primary wavelength.
Plasma was collected at indicated timepoints and analyzed with a Mouse IFN-beta ELISA kit (R&D Systems) according to the manufacturer's recommendations. Data was collected using an Enspire spectro-photometer using […] as the primary wavelength.
Plasma was collected at indicated timepoints and analyzed with a mouse Proinflammatory Panel 1 (mouse) Kit V-PLEX™ 10 plex from MesoScale Discovery. 25 μL of plasma per sample was used and protocol was followed according to the manufacturer's recommendations. Data were collected and analyzed using a Sector Imager 6000.
Human DC-SIGN transgenic mice (Tg+) (Schaefer et al., J. Immunol. (2008) 180 (10) 6836-6845) were bred to Signr1 deficient mice (−/− or KO) (Orr et al., Glycobiology (2013) 23(3): 363-380). Human DC-SIGN expression was checked using PCR to genotype the mice. Human DC-SIGN Tg+ Signr1−/− mice or human DC-SIGN Tg− Signr1−/− mice were tested with compounds as indicated in the above examples.

In the case of `Nc1ncnc2c1ncn2C1OC2COP(=O)(S)OC3C(COP(=O)(S)OC2C1F)OC(n1cnc2c(N)ncnc21)C3F` (stereo not drawn) [Compound T1-1, di-2′-F—RR-CDA], the EC50 (THP1-Dual cells) is reported as 0.462 µM, the EC50 (THP1-Dual/STING-KO cells) is reported as > 50 µM and the “circulating plasma IL-12p70” value [1] is reported as “increased”. For the same compound, the “circulating plasma IP-10” value [1] was “increased”, the “circulating plasma TNFα” value [1] was “increased” and the EC50 (human STING wild type) was 0.294 µM. The “plasma IL-12p70” value [2] was “increased”, the “plasma IP-10” value [2] was “increased” and the “plasma TNFα” value [2] was “increased”.
With `Nc1ncnc2c1ncn2[C@@H]1O[C@@H]2CO[P@@](=O)(S)O[C@@H]3[C@H](O)[C@@H](CO[P@@](=O)(S)O[C@H]2[C@H]1F)O[C@H]3n1cnc2c(N)ncnc21` [Compound T1-2] the EC50 (THP1-Dual cells) was 1.99 µM.
For `CCCCCCCCCCO[C@@H]1[C@@H]2O[P@](=O)(S)OC[C@H]3O[C@@H](n4cnc5c(N)ncnc54)[C@H](O[P@](=O)(S)OC[C@H]2O[C@H]1n1cnc2c(N)ncnc21)[C@@H]3O`, the EC50 (THP1-Dual cells) was > 25 µM.
In the case of `NCCCNc1ncnc2c1ncn2[C@@H]1O[C@@H]2CO[P@@](=O)(S)O[C@H]3[C@@H](F)[C@H](n4cnc5c(N)ncnc54)O[C@@H]3CO[P@@](=O)(S)O[C@H]2[C@H]1F`, the EC50 (human STING wild type) is reported as > 25 µM.
